Holding throughout (experiment): NCI anticancer screen, dose series, 48 h
Experiment [1] deals with CCRF-CEM leukemia.
In experiment [2] the test system is HOP-62 NSCLC.
Experiment [3] has as its system K-562 leukemia.
Experiment [4] concerns SK-MEL-5 melanoma.
For experiment [5], the system named is UACC-257 melanoma.
Experiment [6] concerns U251 CNS.
Experiment [7] has as its system HL-60(TB) leukemia.
For experiment [8], the system named is OVCAR-4 ovarian.
Experiment [9] deals with SW-620 colon.
The subject of experiment [10] is SK-MEL-2 melanoma.
For experiment [11], the system named is UACC-62 melanoma.
Experiment [12] deals with SF-268 CNS.
For experiment [13], the system named is HOP-92 NSCLC.

Molecules are shown by their SMILES. Values joined by “and” are separate entries in the source; they are usually repeats but may differ in a detail not shown here. Equal entries are not always repeated.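 Grown in 96-well plates, cells were treated for 48 hours with each compound at five concentrations. Insufficient inhibition: endpoint recorded as highest concentration tested. GI50 is the concentration that inhibits growth by half. TGI: concentration producing complete growth inhibition.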

As for `CC(=O)/C(=C\n1c(=S)[nH]c2ccc([N+](=O)[O-])cc21)C(=O)Nc1ccccc1C`, the TGI in [1], in experiment [2], in experiment [3], in [4], in [5] and in experiment [6] was > 100 µM throughout. Also, the TGI in experiment [7], in experiment [8], in experiment [9], in experiment [10] and in [11] was > 100 µM each time.
For `COC(=O)/C=C(\S/C(=C(/c1ccccc1)n1cc(C(=O)OC)c(C(=O)OC)n1)c1ccccc1)C(=O)OC`, the TGI in [12] worked out at 32.8 µM; in experiment [1], 31.3 µM; in experiment [2] it was 31 µM; in experiment [3], 31.8 µM; in [4], 44.5 µM; in experiment [5], 23.9 µM. Moreover, the TGI was determined as 66.1 µM in experiment [6]; 12.6 µM in [7]; 29 µM in [8]; 16.9 µM in [9]; 35.8 µM in experiment [10]; 94 µM in experiment [11].
Turning to `CCOP(=O)(OCC)OC1CC(n2cnc3c(N(CC)CC)ncnc32)OC1CO[Si](C)(C)C(C)(C)C` (stereo not given), the TGI in experiment [12] is 31.5 µM; in experiment [1], 41.2 µM; in [2], 34 µM; in experiment [3], 57.6 µM; in [4], 31.4 µM; in experiment [5], 32.4 µM. The TGI in experiment [6] is 28.7 µM; in experiment [7], > 100 µM; in experiment [8], 29.5 µM; in experiment [9] it was 35.2 µM; in experiment [10], 45.6 µM; in experiment [11] it was 28.2 µM.
Take `COc1ccc(-c2c(C(=O)Nc3ccccc3)c(-c3ccccc3)n(C3OC(CO)C(O)C(O)C3O)c(=S)c2C#N)cc1` (stereo not given): the TGI in [12], in experiment [1], in experiment [2], in [3], in experiment [4] and in [5] was > 100 µM in each case. Also, the TGI in [13], in experiment [6], in experiment [7], in experiment [8], in [9] and in experiment [11] was > 100 µM each time.
With `CN(Cc1cnc2nc(N)nc(N)c2n1)c1ccc(C(=O)NC2CCCCC2)cc1`, the TGI is > 100 µM in [12]; > 100 µM in experiment [1]; > 100 µM in experiment [2]; > 100 µM in experiment [3]; 38.1 µM in [4]; > 100 µM in experiment [5]. Further, the TGI in experiment [6] was 32.5 µM; in [7] it was > 100 µM; in experiment [9] it was > 100 µM; in experiment [10], > 100 µM; in [11] it was 32 µM.
As to `O=[N+]([O-])c1ccc2nc(/C=C(\O)c3ccccc3)c(/C=C(\O)c3ccc(Cl)cc3)nc2c1`, the TGI in experiment [12] is > 100 µM; in experiment [1] it was > 100 µM; in [2] it was 88.2 µM; in experiment [3], > 100 µM; in experiment [4] it was > 100 µM; in experiment [5], > 100 µM. Also, the TGI in [6], in [8], in experiment [10] and in [11] was > 100 µM in each case.
`CCOC(=O)C(NC(=O)Nc1ccccc1F)(OC)C(F)(F)F` (stereo not given): the TGI in [12], in [1], in [3], in [4], in [5] and in experiment [6] was > 100 µM each time. For the same compound, the TGI in [7], in [9] and in experiment [10] was > 100 µM in each case.
`N#Cc1c(-c2ccccc2)cc(Nc2ccc(F)cc2)n2c1nc1ccccc12`: the TGI in experiment [12] was > 62.1 µM; in experiment [2] it was 40.8 µM; in experiment [3], > 100 µM; in [4], 2.73 µM; in experiment [5] it was 8.78 µM; in [6], 8.11 µM. For the same compound, the TGI in experiment [7] was > 100 µM; in experiment [8] it was > 100 µM; in experiment [9] it was > 100 µM; in experiment [10] it was 4.35 µM; in experiment [11], 14.8 µM.
As for `COc1cccc(/C=N/[N-]C(N)=O)c1[O-].[OH3+].[Zn+2]`, the TGI in [12], in [1], in experiment [2], in experiment [3], in [4] and in experiment [5] was > 100 µM each time. In addition, the TGI in [13], in [6], in [8], in experiment [9], in experiment [10] and in experiment [11] was > 100 µM in each case.
In the case of `COc1cc(-c2c(C(C)=O)c(-c3ccccc3)n(C3OC(COC(C)=O)C(OC(C)=O)C(OC(C)=O)C3OC(C)=O)c(=S)c2C#N)ccc1O` (stereo not given), the TGI in experiment [12], in experiment [1], in experiment [2], in experiment [3], in experiment [4] and in experiment [5] was > 100 µM in each case. The TGI in experiment [13], in [6], in experiment [8], in [9] and in experiment [11] was > 100 µM each time. For the same compound, the GI50 in experiment [5] is > 100 µM and 34.9 µM.
As for `Cc1oc2nc(N(C)C)n3c(C)nnc3c2c1C`, the TGI in [12], in experiment [1], in experiment [3], in [4], in experiment [5] and in experiment [13] was > 100 µM in each case. In addition, the TGI in experiment [6], in experiment [8], in experiment [9] and in experiment [11] was > 100 µM throughout.
For `Cc1ccc2c(c1)C(=O)c1ccc(C)nc1C2=O`, the TGI was > 100 µM in experiment [12]; > 100 µM in [1]; > 100 µM in experiment [2]; > 100 µM in experiment [3]; 26.7 µM in experiment [4]; 48.9 µM in experiment [5]. In addition, the TGI in [6] was > 100 µM; in [7], > 100 µM; in experiment [8], 83.7 µM; in experiment [9] it was > 100 µM; in [10], > 100 µM; in experiment [11], 48.9 µM.
Regarding `NC1=NC(=O)[C@H](CSCc2ccccc2)N1C(=O)OCc1ccccc1`, the TGI in experiment [12], in experiment [2], in [3], in experiment [4], in [5] and in experiment [6] was > 100 µM in each case. Besides, the TGI in [7], in experiment [8], in experiment [9], in experiment [10] and in experiment [11] was > 100 µM throughout.
With `[N-]=[N+]=NC1=C(N=[N+]=[N-])c2cccc3cccc(c23)C1=O`, the TGI in experiment [12], in experiment [1], in [2], in [3], in experiment [4] and in experiment [5] was > 100 µM throughout. The TGI in experiment [13], in [6], in experiment [8], in experiment [9], in experiment [10] and in experiment [11] was > 100 µM each time.
`CN(N=O)C(N)=NC(=O)c1ccccc1`: the TGI in [12], in [1], in experiment [2], in experiment [3], in [4] and in [5] was > 100 µM in each case. The TGI in [13], in [6], in experiment [8], in experiment [9], in [10] and in experiment [11] was > 100 µM in each case.
As to `COc1ccc2[nH]c3c(c2c1)CCc1ccccc1-3`, the TGI in [12], in experiment [1], in experiment [2], in [3], in [4] and in [5] was > 100 µM in each case. In addition, the TGI in [13], in experiment [6], in experiment [8], in experiment [9], in experiment [10] and in experiment [11] was > 100 µM throughout.
For `CC(=O)Nc1ccccc1S(=O)(=O)c1c(-c2c(C)c(Cl)c(C)c(Cl)c2C)noc1C`, the TGI in experiment [12] was > 100 µM; in experiment [1], 71.2 µM; in experiment [2] it was 50 µM; in [3], > 100 µM; in experiment [4], > 100 µM; in experiment [5], > 100 µM. Besides, the TGI in experiment [6] was 95.5 µM; in [8] it was 35.6 µM; in [9], > 100 µM; in experiment [10], > 100 µM; in experiment [11], > 100 µM.
On to `COc1ccc(/C=N/Nc2nc3ccccc3c(=O)n2-c2ccccc2)cc1`, for which the TGI in [12], in [1], in experiment [2], in experiment [3], in [4] and in experiment [5] was > 100 µM throughout. The TGI in [6], in [7], in [8], in [9], in experiment [10] and in experiment [11] was > 100 µM throughout.
On to `O=C(N/N=C1\CCc2ccccc21)N/N=C1\CCc2ccccc21`, for which the TGI in experiment [12], in [1], in experiment [2], in [3], in [4] and in experiment [5] was > 100 µM each time. Besides, the TGI in [6], in [7], in experiment [9], in experiment [10] and in [11] was > 100 µM in each case.
With `c1ccc(NC2(c3nnnn3C3CCCCC3)CCNCC2)cc1`, the TGI in experiment [12] was > 100 µM; in experiment [1] it was 55.4 µM; in experiment [2], 31.9 µM; in experiment [4] it was 34.6 µM; in experiment [5], 30.6 µM; in [13], 32.3 µM. For the same compound, the TGI is 31.5 µM in experiment [6]; 31.5 µM in [7]; > 100 µM in experiment [8]; 43.4 µM in experiment [9]; 38.5 µM in [11].
Regarding `CC1C2CC(CC2=O)C1(C)C` (stereo not given), the TGI in experiment [12], in experiment [1], in experiment [2], in experiment [3], in experiment [4] and in [5] was > 100 µM in each case. In addition, the TGI in [13], in experiment [6], in [7], in [8], in experiment [9] and in experiment [11] was > 100 µM throughout.
Consider `C=C1C(=O)OC2C3C(=C)[C@@H](OC(C)=O)CC3C(C)=CC(OC(=O)C(C)(O)C(C)OC(C)=O)[C@@H]12` (stereo not given in full), for which the TGI in experiment [12] came out at 37.9 µM; in experiment [1], 7.51 µM; in experiment [2], 46.6 µM; in [3] it was 14.8 µM; in experiment [4] it was 20.1 µM; in experiment [5], 23.2 µM. The TGI in experiment [6] is 30.5 µM; in experiment [7], 5.57 µM; in experiment [8], 23.3 µM; in experiment [9], 10.7 µM; in [10] it was 20.6 µM; in experiment [11], 25.8 µM.
Turning to `COc1ccc(-n2c(-c3ccccc3)cc(-c3cccs3)c2-c2cccs2)cc1`, the TGI in experiment [12] was > 100 µM; in [1] it was 32.7 µM; in experiment [2], > 100 µM; in experiment [4], > 100 µM; in [5], > 100 µM; in [13] it was > 100 µM. In addition, the TGI in experiment [6], in [8], in experiment [9] and in experiment [11] was > 100 µM throughout.

The values above are taken from PubChem BioAssay (NCI).
